Data from patent US7332612B2 (Teva Pharmaceutical Industries Ltd., priority 2001, dated 2008).

Text: To obtain Form II in high chemical purity the starting material should also be chemically pure.

CCCCc1nc(Cl)c(CO)n1Cc1ccc(-c2ccccc2-c2nnn[nH]2)cc1.[K] [losartan potassium]
solubility in methanol (methanol, complete dissolution at room temperature): highly soluble | solubility in xylene (xylene, either crystalline or amorphous): low solubility
